Experimental data as given in patent publication US20120289523A1, “PYRROLO [3,2-E] [1,2,4] TRIAZOLO [1,5-A] PYRIMIDINES DERIVATIVES AS INHIBITORS OF MICROGLIA ACTIVATION” (BTG INTERNATIONAL LIMITED, priority 2009, published 2012).

Tests used:
CYP2C9 = target: T1, CYP2C9 (Homo sapiens, UniProt P11712); assay: Inhibition of cytochrome P450 (P450-Glo) CYP2C9; type: biochemical; conditions: human recombinant enzyme, read-out: CYP450 Inhibition (IC50 microM) 2C9
T1 construct: purchased Promega Corporation
T1 sequence (P11712 whole entry): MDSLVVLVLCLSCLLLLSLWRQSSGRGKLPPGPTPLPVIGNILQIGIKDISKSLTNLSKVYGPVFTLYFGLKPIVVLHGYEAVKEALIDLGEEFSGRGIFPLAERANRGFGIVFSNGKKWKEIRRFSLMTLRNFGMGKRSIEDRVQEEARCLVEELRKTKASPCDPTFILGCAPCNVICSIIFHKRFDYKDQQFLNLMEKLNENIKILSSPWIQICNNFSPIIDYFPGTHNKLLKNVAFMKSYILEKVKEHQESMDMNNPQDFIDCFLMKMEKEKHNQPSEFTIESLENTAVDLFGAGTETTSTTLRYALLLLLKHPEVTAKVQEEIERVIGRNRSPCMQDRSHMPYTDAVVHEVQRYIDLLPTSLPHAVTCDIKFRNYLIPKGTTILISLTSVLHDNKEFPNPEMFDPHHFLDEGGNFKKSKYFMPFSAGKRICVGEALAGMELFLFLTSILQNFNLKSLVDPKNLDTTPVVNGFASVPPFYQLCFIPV
Procedure: (§1) Tests were carried out using human recombinant enzymes CYP1A2, CYP2C9, CYP2C19, CYP2D6 and CYP3A4 and P450-Glo™ screening system (Promega Corporation). Briefly, using a white opaque 96-well plate, one-fourth of the final reaction volume of a 4×cytochrome P450 reaction mixture containing the requisite luminogenic substrate was combined with an equal volume of the test compound (0.03-30 μM) or known inhibitor control at a 4×concentration to give one-half of the final reaction volume. A 10-minute pre-incubation was performed. One-half the final volume of the 2×NADPH regeneration system was then added to initiate the CYP reactions, and bring all components to their 1×target concentrations. The plate is incubated at 37° C. for 30 minutes. The luciferin detection reagent was added which stops the CYP reaction and initiates luminescence. The signal was allowed to stabilize for 20 minutes at room temperature and then the luminescence was read. The net CYP-dependent luminescence was calculated by subtracting the average luminescence of the control reactions from the CYP-containing reactions. Changes from the average net signal of untreated CYP reactions for reactions with a test compound reflect the inhibition of CYP activity by this compound.

CYP1A2 = target: T2, CYP1A2 (Homo sapiens, UniProt P05177); assay: Inhibition of cytochrome P450 (P450-Glo) CYP1A2; type: biochemical; conditions: human recombinant enzyme, read-out: CYP450 Inhibition (IC50 microM) 1A2
T2 construct: purchased Promega Corporation
T2 sequence (P05177 1-516): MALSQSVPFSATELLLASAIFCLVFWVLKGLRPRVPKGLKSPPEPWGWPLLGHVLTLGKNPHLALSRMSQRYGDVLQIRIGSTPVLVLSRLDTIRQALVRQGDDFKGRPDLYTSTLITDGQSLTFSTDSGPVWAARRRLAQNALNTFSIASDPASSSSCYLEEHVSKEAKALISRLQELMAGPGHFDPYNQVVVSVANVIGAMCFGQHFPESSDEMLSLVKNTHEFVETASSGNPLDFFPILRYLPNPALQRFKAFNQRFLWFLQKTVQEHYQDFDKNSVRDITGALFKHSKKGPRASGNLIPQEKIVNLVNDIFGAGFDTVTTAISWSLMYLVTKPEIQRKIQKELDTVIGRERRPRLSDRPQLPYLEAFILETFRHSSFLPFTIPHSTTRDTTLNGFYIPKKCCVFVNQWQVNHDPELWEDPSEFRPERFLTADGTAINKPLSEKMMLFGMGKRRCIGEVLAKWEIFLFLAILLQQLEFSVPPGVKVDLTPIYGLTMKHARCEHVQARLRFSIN
Procedure: as §1, with “Briefly, using a white opaque 96-well plate, one-fourth of the final reaction volume of a 4×cytochrome P450 reaction mixture containing the requisite luminogenic substrate was combined with an equal volume of the test compound (0.03-30 μM) or known inhibitor control at a 4×concentration to give one-half of the final reaction volume.” left out

[1] = Metabolism of compounds, rat liver microsomes; type: in vitro ADME; conditions: 1 μM compound, 0.3 mg/ml protein, 60 minutes at 37° C.; for half-life at 1 μM: rat, pooled liver microsomes, read-out: Microsomes t1/2 (mins) Rat
Procedure: (§2) These were measured by incubating 1 μM test compound with pooled liver microsomes (0.3 mg/ml) protein for 60 minutes at 37° C. Samples were analysed by HPLC-MS/MS (Kuhnz, W. and Gieschen, H. (1998) Drug Metab. Dispos., 26, 1120-1127).

CYP2D6 = target: T3, CYP2D6 (Homo sapiens, UniProt P10635); assay: Inhibition of cytochrome P450 (P450-Glo) CYP2D6; type: biochemical; conditions: human recombinant enzyme, read-out: CYP450 Inhibition (IC50 microM) 2D6
T3 construct: purchased Promega Corporation
T3 sequence (P10635 whole entry): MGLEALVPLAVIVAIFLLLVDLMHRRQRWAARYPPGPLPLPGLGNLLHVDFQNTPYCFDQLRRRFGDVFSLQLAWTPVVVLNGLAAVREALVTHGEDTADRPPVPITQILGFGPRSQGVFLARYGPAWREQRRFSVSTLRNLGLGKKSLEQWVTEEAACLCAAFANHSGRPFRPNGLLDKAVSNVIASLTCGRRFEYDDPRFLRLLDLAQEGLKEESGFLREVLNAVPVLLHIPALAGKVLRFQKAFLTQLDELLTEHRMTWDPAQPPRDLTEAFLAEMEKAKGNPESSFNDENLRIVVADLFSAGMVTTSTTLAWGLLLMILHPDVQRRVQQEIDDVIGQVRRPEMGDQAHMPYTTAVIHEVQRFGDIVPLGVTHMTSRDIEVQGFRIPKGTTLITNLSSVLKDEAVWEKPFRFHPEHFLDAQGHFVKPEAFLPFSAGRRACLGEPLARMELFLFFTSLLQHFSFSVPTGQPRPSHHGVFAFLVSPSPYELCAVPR
Procedure: as §1

CYP3A4 = target: T4, CYP3A4 (Homo sapiens, UniProt P08684); assay: Inhibition of cytochrome P450 (P450-Glo) CYP3A4; type: biochemical; conditions: human recombinant enzyme, read-out: CYP450 Inhibition (IC50 microM) 3A4
T4 construct: purchased Promega Corporation
T4 sequence (P08684 whole entry): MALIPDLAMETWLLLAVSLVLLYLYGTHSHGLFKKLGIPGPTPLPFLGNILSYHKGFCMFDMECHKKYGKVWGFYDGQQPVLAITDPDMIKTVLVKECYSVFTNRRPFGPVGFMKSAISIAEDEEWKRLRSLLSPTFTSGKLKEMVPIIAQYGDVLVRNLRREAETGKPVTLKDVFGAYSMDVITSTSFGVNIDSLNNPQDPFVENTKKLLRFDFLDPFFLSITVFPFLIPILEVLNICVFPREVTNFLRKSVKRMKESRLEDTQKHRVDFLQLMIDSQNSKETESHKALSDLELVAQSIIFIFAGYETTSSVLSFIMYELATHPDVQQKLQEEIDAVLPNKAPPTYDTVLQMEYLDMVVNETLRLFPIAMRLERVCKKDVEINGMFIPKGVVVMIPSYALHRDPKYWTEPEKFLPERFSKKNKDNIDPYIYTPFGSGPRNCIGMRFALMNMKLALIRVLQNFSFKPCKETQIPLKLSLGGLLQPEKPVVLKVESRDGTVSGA
Procedure: as §1

CYP2C19 = target: T5, CYP2C19 (Homo sapiens, UniProt P33261); assay: Inhibition of cytochrome P450 (P450-Glo) CYP2C19; type: biochemical; conditions: human recombinant enzyme, read-out: CYP450 Inhibition (IC50 microM) 2C19
T5 construct: purchased Promega Corporation
T5 sequence (P33261 whole entry): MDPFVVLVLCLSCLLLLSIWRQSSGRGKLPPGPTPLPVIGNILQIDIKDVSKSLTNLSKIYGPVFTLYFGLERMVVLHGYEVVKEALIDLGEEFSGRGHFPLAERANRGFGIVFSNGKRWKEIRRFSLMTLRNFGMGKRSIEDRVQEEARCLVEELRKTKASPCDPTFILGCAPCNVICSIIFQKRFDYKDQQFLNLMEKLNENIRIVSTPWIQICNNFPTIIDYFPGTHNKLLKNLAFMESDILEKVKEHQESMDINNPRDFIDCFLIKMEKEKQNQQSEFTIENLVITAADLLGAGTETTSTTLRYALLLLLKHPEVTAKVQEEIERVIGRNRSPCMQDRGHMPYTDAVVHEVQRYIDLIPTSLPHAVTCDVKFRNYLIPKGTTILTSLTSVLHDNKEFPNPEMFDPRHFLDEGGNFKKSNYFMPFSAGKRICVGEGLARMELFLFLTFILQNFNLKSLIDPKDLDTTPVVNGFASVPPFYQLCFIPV
Procedure: as §1

[2] = Metabolism of compounds, human liver microsomes; type: in vitro ADME; conditions: 1 μM compound, 0.3 mg/ml protein, 60 minutes at 37° C.; for half-life at 1 μM: human, pooled liver microsomes, read-out: Microsomes t1/2 (mins) Human
Procedure: as §2

[3] = system: human colon adeno-carcinoma cell line Caco-2 or sub-clone TC7; assay: Cell permeability of compounds (Caco-2 or TC7 monolayers); type: in vitro ADME; conditions: 10 μM; for Cell Perm A-B/B-A: ratio of Papp A-B to B-A, 60 minutes
Procedure: (§3) These were measured using the accepted in vitro intestinal epithelial model using either the human colon adeno-carcinoma cell line Caco-2 or a sub-clone of this cell line, TC7. The apparent permeability coefficient (Papp) was determined in the apical-to-basolateral (A-B) and the B-A directions across cell monolayers cultured on 96-well polycarbonate membrane filters. Compounds were tested at 10 μM with a final DMSO concentration of 1%. The assay plate was incubated for 60 minutes at 37° C. with gentle shaking. Samples were taken at time zero from the donor side and at the end of the incubation from both donor and receiver sides. Samples were analysed by HPLC-MS/MS. The Papp value (expressed as 10^−6 cm/sec) was then calculated based on the appearance rate of the compound in the receiver side (Gres, M. C. et al. (1998) Pharm. Res., 15, 726-733).

[4] = system: Mouse BALB/c monocyte macrophages, J774.2; assay: Inhibition of β-amyloid induced activation: nitric oxide release (Griess assay); type: cell-based; conditions: 20 μM Aβ(1-42), 50 U/ml Interferon gamma, 24 hours
Procedure: (§4) Mouse BALB/c monocyte macrophages, J774.2, {ECACC 85011428} were grown and sub-cultured in cell media (DMEM containing 10% FBS, 1% L-glutamine and 1% penicillin/streptomycin). The J774 cells were plated at 100,000 cells/well in 50 μl cell media on 96 well plates and placed in a 37° C., 5% CO2 incubator overnight prior to experiments.
(§5) The addition of Aβ(1-42) and compounds to the J774 cells was performed using a Biotek precision 2000 liquid handling instrument. 3 μl of compound in DMSO ranging from 8 μM to 6 mM were pipetted into a “daughter plate” containing 294 μl of cell media and mixed thoroughly. 3 μl of Aβ(1-42) in DMSO at 4 mM was then added to the “daughter plate” and mixed thoroughly. 50 μl was then removed from the “daughter plate” and added to the plated J774 cells. The final concentrations in the wells containing 100 μl cell media were 20 μM Aβ(1-42), the compounds ranged from ˜40 nM to 30 μM in 1% DMSO and also in the presence of 50 U/ml Interferon gamma. The plates were incubated for 24 hours in a 37° C., 5% CO2 incubator. After 24 hours incubation the media from the wells were collected and stored at −20° C. until required for testing.
The nitric oxide levels in the media were tested using the Griess assay (Promega G2930) using the manufacturer's instructions.

[5] = system: Mouse BALB/c monocyte macrophages, J774.2; assay: Inhibition of β-amyloid induced activation: TNF-alpha levels in media (ELISA or Meso Scale Discovery kit); type: cell-based; conditions: J774.2, 24 h, J774.2 cells, 20 μM Aβ(1-42), read-out: IC50 (μM) TNF-α
Procedure: as §4, §5
The TNF-alpha levels in the media were tested using a TNF-alpha ELISA (R&D Systems MTA00) or Meso Scale Discovery MS6000 Mouse Proinflammatory-7 kit, using the manufacturers instructions.

[6] = Cell permeability of compounds (Caco-2 or TC7 monolayers); type: in vitro ADME, human; conditions: human, Caco-2, apical-to-basolateral, 60 minutes at 37° C., read-out: Cell Perm A-B
Procedure: as §3

[7] = Table 1, identification of the active enantiomer, J774.2 cells, read-out: IC50 measured by inhibition of Nitric Oxide release
[8] = *Level of TNF for Aβ(1-42) alone: 9699 pg/mL
[9] = Table 2, J774.2 cells, read-out: IC50 (μM) NO
[10] = **Level of TNF for Aβ(1-42) alone: 13184 pg/mL

## Cc1nc2ncnn2c2c1CCN2[C@@H](C)c1ccc(F)cc1 [Compound 7, (S)-8-[1-(4-Fluorophenyl)ethyl]-5-methyl-7,8-dihydro-6H-pyrrolo [3,2e][1,2,4]triazolo[1,5-a]pyrimidine]
CYP2C9
  IC50: 27 µM
CYP1A2
  IC50: 99 µM
[1]
  Microsomes t1/2 (mins) Rat: 15 min
CYP2D6
  IC50: 15 µM
CYP3A4
  IC50: 0.83 µM
CYP2C19
  IC50: 7 µM
[2]
  Microsomes t1/2 (mins) Human: >60 min
[3]; apical-to-basolateral, 60 minutes at 37° C.
  Cell Perm (Papp 10^−6 cm s^−1) A-B: 33 10^−6 cm s^−1
[3]
  Cell Perm A-B/B-A: 0.85

## Cc1nc2ncnn2c2c1CCN2[C@H](C)c1ccccc1 [Compound 6, (R)-8-[1-(Phenyl)ethyl]-5-methyl-7,8-dihydro-6H-pyrrolo[3,2e][1,2,4]triazolo[1,5-a]pyrimidine]
[4]; [7]
  IC50: 30 µM

## Cc1nc2ncnn2c2c1CCN2[C@H](c1ccccc1)C(F)(F)F [Compound 1, (R)-5-Methyl-8-[2,2,2-trifluoro-1-phenylethyl]-7,8-dihydro-6H-pyrrolo[3,2e][1,2,4]-triazolo[1,5-a]pyrimidine]
CYP2C9
  IC50: 14 µM
CYP1A2
  IC50: > 20 µM
[1]
  half-life at 1 μM: 35 min
[5]; [8]
  IC50: 1.44 µM
CYP2D6
  IC50: > 20 µM
CYP3A4
  IC50: 8 µM
CYP2C19
  IC50: > 10 µM
[4]; [9]
  IC50: 1.1 µM
other
  melting point: 153 to 155 °C
[2]
  half-life at 1 μM: > 60 min
[3]
  Cell Perm A-B/B-A: 0.55
[6]
  Papp A→B at 60 min, 10 μM: 35 ×10⁻⁶ cm/s

## Cc1nc2ncnn2c2c1CCN2[C@@H](C)c1ccccc1 [Compound 5, (S)-8-[1-(Phenyl)ethyl]-5-methyl-7,8-dihydro-6H-pyrrolo[3,2e][1,2,4]triazolo[1,5-a]pyrimidine]
CYP2C9
  IC50: > 100 µM
CYP1A2
  IC50: > 100 µM
[1]
  half-life at 1 μM: 15 min
[5]; [10]
  IC50: 2.3 µM
CYP2D6
  IC50: 21 µM
CYP3A4
  IC50: 0.53 µM
CYP2C19
  IC50: 13 µM
[4]; [7]
  IC50: 1.5 µM
[4]; [9]
  IC50: 1.5 µM
[2]
  half-life at 1 μM: > 60 min
[3]
  Cell Perm A-B/B-A: 0.85
[6]
  Papp A→B at 60 min, 10 μM: 35 ×10⁻⁶ cm/s

## Cc1nc2ncnn2c2c1CCN2C(C)c1ccccc1 (single isomer, unassigned) [Compound 4]
[5]; [10]
  IC50: 5.5 µM
[4]; [7]
  IC50: 3 µM
[4]; [9]
  IC50: 3 µM

## Cc1nc2ncnn2c2c1CCN2[C@H](c1ccc(F)cc1)C(F)(F)F [Compound 2, (R)-5-Methyl-8-[2,2,2-trifluoro-1-(4-fluorophenyl)ethyl]-7,8-dihydro-6H-pyrrolo[3,2e][1,2,4]triazolo[1,5-a]pyrimidine]
CYP2C9
  IC50: > 20 µM
CYP1A2
  IC50: > 20 µM
[1]
  half-life at 1 μM: 60 min
[5]; [10]
  IC50: 3.2 µM
[5]; [8]
  IC50: 0.91 µM
CYP2D6
  IC50: > 20 µM
CYP3A4
  IC50: 19 µM
CYP2C19
  IC50: > 20 µM
[4]; [9]
  IC50: 0.8 µM
[2]
  half-life at 1 μM: > 60 min
[3]
  Cell Perm A-B/B-A: 0.37
[6]
  Papp A→B at 60 min, 10 μM: 72 ×10⁻⁶ cm/s
